Measurements published in PMC6379670, “An ultra-high affinity ligand of HIV-1 TAR reveals the RNA structure recognized by P-TEFb” (Nucleic Acids Research, 2018).
Where two headings read alike, the source gives them in different places. Non-standard residues stand in square brackets, D forms with d. Residues, ends and D or L forms follow the SMILES beside them. hArg = N=C(N)NCCCC[C@H](N)C(=O)O; Orn = NCCC[C@H](N)C(=O)O; Dab = NCC[C@H](N)C(=O)O

Legend:
JB181 (synthetic) = assay: EMSA
HIV-1 TAR RNA = format: binding; details: EMSA
Description: (§1) Electro Mobility Shift Assays (EMSA) and 2-aminopurine fluorescence ([35]) were used to measure peptide binding. For EMSA, all RNAs were 5′-dephosphorylated ([25],[26]) and 5′-rephosphorylated using T4 Polynucleotide Kinase (PNK); shifts were performed and analyzed as previously described ([14]). The P-TEFb/Tat1:57/AFF4 binding assays were run as described ([11]), with protein samples generously donated by Drs Ursula Schulze-Gahmen and James Hurley, but binding buffers contained 250× fold excess yeast tRNA. JB181-bound samples were prepared with 3× excess labeled HIV-TAR prior to titration with the pre-formed P-TEFb/Tat1:57/AFF4 complex.
(§2) Fig. S1. a) HIV-1 TAR, BIV TAR and 7SK-SL4 RNAs have similar secondary structures, but the JB181 peptide discriminates between them. […]
(§3) tightly than BIV TAR (3.3 nM) or 7SK (>3 μM) RNAs. b) EMSA of representative JB-peptides with 32P radiolabeled HIV-1 TAR RNA ([RNA]=75pM). The peptide concentration increases from left to right, as indicated. The dissociation constant can be estimated by the peptide concentration where there is an approximate 1:1 ratio (as established by visual inspection) between free RNA and complex, since the RNA concentration is much lower than the KD.
(§4) (1 picture or pasted object on this page, not shown here)

BIV TAR RNA = assay: EMSA binding to BIV TAR; details: positional scanning library, Table S1
Description: as §1, §2, §3, §4

[1] = positional scanning library, Table S1, with tRNA, read-out: Kd (nM) w/tRNA
[2] = positional scanning library, Table S1, without tRNA, read-out: Kd (nM) no tRNA
[3] = 32P radiolabeled HIV-1 TAR RNA, [RNA]=75pM, Table 1, read-out: K D (HIV)

Molecule | Kd (JB181 (synthetic)) | Kd (HIV-1 TAR RNA; [1]) | other results
HIV-1 TAR A35del | < 1.3 nM |  | 
CC[C@H](C)[C@@H]1NC(=O)[C@H](CCCNC(=N)N)NC(=O)[C@H](CCCNC(=N)N)NC(=O)CNC(=O)[C@H](CCCCN)NC(=O)[C@H](CCCNC(=N)N)NC(=O)[C@H]([C@@H](C)O)NC(=O)[C@H](CCCNC(=N)N)NC(=O)[C@H](Cc2ccc(O)cc2)NC(=O)[C@H](CCCNC(=N)N)NC(=O)[C@@H]2CCCN2C(=O)[C@H]2CCCN2C(=O)[C@H]([C@@H](C)CC)NC(=O)[C@H](CCCNC(=N)N)NC1=O [JB-62] (cyclo(RYRTRKGRRIRI[dP]P)) |  | 150 nM | Kd (HIV-1 TAR RNA; [2]): 1 to 5 nM; Kd (BIV TAR RNA): 10 nM
CC[C@H](C)[C@@H]1NC(=O)[C@H](CCCNC(=N)N)NC(=O)[C@H](C(C)C)NC(=O)[C@H](CCCNC(=N)N)NC(=O)[C@H](CCCNC(=N)N)NC(=O)CNC(=O)[C@H](CCCCN)NC(=O)[C@H](CCCNC(=N)N)NC(=O)[C@H]([C@@H](C)O)NC(=O)[C@H](CCCNC(=N)N)NC(=O)[C@H](C(C)C)NC(=O)[C@H](CCCNC(=N)N)NC(=O)[C@@H]2CCCN2C(=O)[C@H]2CCCN2C1=O [JB-76] (cyclo(RVRTRKGRRVRI[dP]P)) |  | < 50 nM | Kd (HIV-1 TAR RNA; [2]): 1 nM; Kd (BIV TAR RNA): 1 nM
HIV-1 TAR A35G, G28C | 10 nM |  | 
HIV-1 TAR A35G, G28A | 11 nM |  | 
CC[C@H](C)[C@@H]1NC(=O)[C@H](CCCNC(=N)N)NC(=O)[C@H](C)NC(=O)[C@H](CCCNC(=N)N)NC(=O)[C@H](CCCNC(=N)N)NC(=O)CNC(=O)[C@H](CCCCN)NC(=O)[C@H](CCCNC(=N)N)NC(=O)[C@H]([C@@H](C)O)NC(=O)[C@H](CCCNC(=N)N)NC(=O)[C@H](C(C)C)NC(=O)[C@H](CCCNC(=N)N)NC(=O)[C@@H]2CCCN2C(=O)[C@H]2CCCN2C1=O [JB-75] (cyclo(RVRTRKGRRARI[dP]P)) |  | 300 nM | Kd (HIV-1 TAR RNA; [2]): 5 nM; Kd (BIV TAR RNA): 1 to 5 nM
CC[C@H](C)[C@@H]1NC(=O)[C@H](CCCNC(=N)N)NC(=O)[C@H](CCCNC(=N)N)NC(=O)CNC(=O)[C@H](CCCCN)NC(=O)[C@H](CCCNC(=N)N)NC(=O)[C@H]([C@@H](C)O)NC(=O)[C@H](CCCNC(=N)N)NC(=O)[C@H]([C@@H](C)O)NC(=O)[C@H](CCCNC(=N)N)NC(=O)[C@@H]2CCCN2C(=O)[C@H]2CCCN2C(=O)[C@H]([C@@H](C)CC)NC(=O)[C@H](CCCNC(=N)N)NC1=O [JB-65] (cyclo(RTRTRKGRRIRI[dP]P)) |  | 50 nM | Kd (HIV-1 TAR RNA; [2]): 1 nM; Kd (BIV TAR RNA): < 1 nM
7SK-SL4 |  |  | Kd (JB181 (synthetic); EMSA: 32P RNA (75-100 pM), 250-fold excess tRNA, buffer as in cited work (not given), 2-AP fluorescence: 100 fM RNA, NMR: 10 mM K phosphate pH 6.5, 10 mM NaCl …): > 3000 nM
HIV-1 TAR G32A, G36A | < 0.166 nM |  | 
CC[C@H](C)[C@@H]1NC(=O)[C@H](CCCNC(=N)N)NC(=O)[C@H](CCCNC(=N)N)NC(=O)CNC(=O)[C@H](CCCCN)NC(=O)[C@H](CCCNC(=N)N)NC(=O)[C@H]([C@@H](C)O)NC(=O)[C@H](CCCNC(=N)N)NC(=O)[C@H](C(C)C)NC(=O)[C@H](CCN)NC(=O)[C@@H]2CCCN2C(=O)[C@H]2CCCN2C(=O)[C@H](CC(C)C)NC(=O)[C@H](CCCNC(=N)N)NC1=O [JB185] (cyclo([Dab]VRTRKGRRIRL[dP]P)) |  |  | Kd (HIV-1 TAR RNA; [3]): 0.5 ± 0.1 nM
CC[C@H](C)[C@@H]1NC(=O)[C@H](CCCNC(=N)N)NC(=O)[C@H](CCCNC(=N)N)NC(=O)CNC(=O)[C@H](CCCCN)NC(=O)[C@H](CCCNC(=N)N)NC(=O)[C@H]([C@@H](C)O)NC(=O)[C@H](CCCNC(=N)N)NC(=O)[C@H](C)NC(=O)[C@H](CCCNC(=N)N)NC(=O)[C@@H]2CCCN2C(=O)[C@H]2CCCN2C(=O)[C@H]([C@@H](C)CC)NC(=O)[C@H](CCCNC(=N)N)NC1=O [JB-66] (cyclo(RARTRKGRRIRI[dP]P)) |  | 100 nM | Kd (HIV-1 TAR RNA; [2]): 1 nM; Kd (BIV TAR RNA): 1 nM
HIV-1 TAR G33A, G34A, G21A | 70 nM |  | 
HIV-1 TAR U25C | 1 nM |  | 
CC[C@H](C)[C@@H]1NC(=O)[C@H](CCCCN)NC(=O)[C@H](CCCNC(=N)N)NC(=O)CNC(=O)[C@H](CCCCN)NC(=O)[C@H](CCCNC(=N)N)NC(=O)[C@H]([C@@H](C)O)NC(=O)[C@H](CCCNC(=N)N)NC(=O)[C@H](C(C)C)NC(=O)[C@H](CCCNC(=N)N)NC(=O)[C@@H]2CCCN2C(=O)[C@H]2CCCN2C(=O)[C@H]([C@@H](C)CC)NC(=O)[C@H](CCCNC(=N)N)NC1=O [JB-71] (cyclo(RVRTRKGRKIRI[dP]P)) |  | > 1000 nM | 
CC[C@H](C)[C@@H]1NC(=O)[C@H](CCCNC(=N)N)NC(=O)[C@H](CCCNC(=N)N)NC(=O)CNC(=O)[C@H](CCCCN)NC(=O)[C@H](CCCNC(=N)N)NC(=O)[C@H]([C@@H](C)O)NC(=O)[C@H](CCCNC(=N)N)NC(=O)[C@H](C(C)C)NC(=O)[C@H](CCCN)NC(=O)[C@@H]2CCCN2C(=O)[C@H]2CCCN2C(=O)[C@H]([C@@H](C)CC)NC(=O)[C@H](CCCNC(=N)N)NC1=O [JB58] (cyclo([Orn]VRTRKGRRIRI[dP]P)) |  |  | Kd (HIV-1 TAR RNA; [3]): 3 ± 0.3 nM
CC[C@H](C)[C@@H]1NC(=O)[C@H](CCCNC(=N)N)NC(=O)[C@H](Cc2c[nH]c3ccccc23)NC(=O)CNC(=O)[C@H](CCCCN)NC(=O)[C@H](CCCNC(=N)N)NC(=O)[C@H]([C@@H](C)O)NC(=O)[C@H](CCCNC(=N)N)NC(=O)[C@H](C(C)C)NC(=O)[C@H](CCCNC(=N)N)NC(=O)[C@@H]2CCCN2C(=O)[C@H]2CCCN2C(=O)[C@H]([C@@H](C)CC)NC(=O)[C@H](CCCNC(=N)N)NC1=O [JB-70] (cyclo(RVRTRKGWRIRI[dP]P)) |  | > 1000 nM | 
HIV-1 TAR A35C | < 1.3 nM |  | 
CC[C@H](C)[C@@H]1NC(=O)[C@H](CCCNC(=N)N)NC(=O)[C@H](CCCNC(=N)N)NC(=O)CNC(=O)[C@H](CCCCN)NC(=O)[C@H](CCCNC(=N)N)NC(=O)[C@H]([C@@H](C)O)NC(=O)[C@H](CCCNC(=N)N)NC(=O)[C@H](C(C)C)NC(=O)[C@H](CCCCNC(=N)N)NC(=O)[C@@H]2CCCN2C(=O)[C@H]2CCCN2C(=O)[C@H]([C@@H](C)CC)NC(=O)[C@H](CCCNC(=N)N)NC1=O [KP-Y-01] (cyclo([hArg]VRTRKGRRIRI[dP]P)) |  | 150 nM | 
GGCUCGUGUAGCUCAUUAGCUCCGAGCC [BIV TAR] | 3.3 nM |  | 
CC[C@H](C)[C@@H]1NC(=O)[C@H](Cc2ccc(O)cc2)NC(=O)[C@H](CCCNC(=N)N)NC(=O)CNC(=O)[C@H](CCCCN)NC(=O)[C@H](CCCNC(=N)N)NC(=O)[C@H]([C@@H](C)O)NC(=O)[C@H](CCCNC(=N)N)NC(=O)[C@H](C(C)C)NC(=O)[C@H](CCCNC(=N)N)NC(=O)[C@@H]2CCCN2C(=O)[C@H]2CCCN2C(=O)[C@H]([C@@H](C)CC)NC(=O)[C@H](CCCNC(=N)N)NC1=O [JB-73] (cyclo(RVRTRKGRYIRI[dP]P)) |  | > 1000 nM | 
CC[C@H](C)[C@@H]1NC(=O)[C@H](CCCNC(=N)N)NC(=O)[C@H](CCCNC(=N)N)NC(=O)CNC(=O)[C@H](CCCCN)NC(=O)[C@H](CCCNC(=N)N)NC(=O)[C@H]([C@@H](C)O)NC(=O)[C@H](CCCNC(=N)N)NC(=O)[C@H](C(C)C)NC(=O)[C@H](CCCNC(=N)N)NC(=O)[C@@H]2CCCN2C(=O)[C@H]2CCCN2C(=O)[C@H]([C@@H](C)CC)NC(=O)[C@H](Cc2c[nH]c3ccccc23)NC1=O [JB-79] (cyclo(RVRTRKGRRIWI[dP]P)) |  | > 1000 nM | 
CC[C@H](C)[C@@H]1NC(=O)[C@H](CCCNC(=N)N)NC(=O)[C@H](CCCNC(=N)N)NC(=O)CNC(=O)[C@H](CCCCN)NC(=O)[C@H](CCC(N)=O)NC(=O)[C@H]([C@@H](C)O)NC(=O)[C@H](CCCNC(=N)N)NC(=O)[C@H](C(C)C)NC(=O)[C@H](CCCNC(=N)N)NC(=O)[C@@H]2CCCN2C(=O)[C@H]2CCCN2C(=O)[C@H]([C@@H](C)CC)NC(=O)[C@H](CCCNC(=N)N)NC1=O [JB-67] (cyclo(RVRTQKGRRIRI[dP]P)) |  | > 1000 nM | 
